From ChEMBL document CHEMBL1201862, “PubChem BioAssay data set” (2004)
Activity calls are given as the source filed them.

How the values were obtained:
[1] = target: T1, Cytochrome P450 1A2 (Homo sapiens, UniProt P05177);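 note: PubChem cytochrome P450 panel assay, CYP1A2 panel member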
T1 sequence (P05177 whole entry): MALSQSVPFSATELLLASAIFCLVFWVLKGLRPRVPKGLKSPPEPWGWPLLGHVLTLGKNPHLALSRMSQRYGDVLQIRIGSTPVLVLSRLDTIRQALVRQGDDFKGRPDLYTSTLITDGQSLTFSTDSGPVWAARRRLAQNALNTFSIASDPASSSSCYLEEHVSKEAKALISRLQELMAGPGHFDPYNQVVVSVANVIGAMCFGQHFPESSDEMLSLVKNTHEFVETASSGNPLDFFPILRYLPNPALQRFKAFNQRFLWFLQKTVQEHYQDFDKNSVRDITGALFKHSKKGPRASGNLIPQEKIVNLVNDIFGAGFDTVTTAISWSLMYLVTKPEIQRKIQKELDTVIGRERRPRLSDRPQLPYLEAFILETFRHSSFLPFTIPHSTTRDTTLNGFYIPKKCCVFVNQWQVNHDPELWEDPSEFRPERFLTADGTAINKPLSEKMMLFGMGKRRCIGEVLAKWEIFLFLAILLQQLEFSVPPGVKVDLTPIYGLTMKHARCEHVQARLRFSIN

[2] = target: T2, Corticotropin-releasing factor receptor 2/Corticotropin-releasing factor-binding protein (Homo sapiens, UniProt P24387+Q13324); assay: Dose Response confirmation of uHTS hits for small molecule antagonists of the CRF-binding protein and CRF-R2 receptor complex.; type: functional; settings: read-out: IC50_Mean
T2 sequence (Q13324 whole entry): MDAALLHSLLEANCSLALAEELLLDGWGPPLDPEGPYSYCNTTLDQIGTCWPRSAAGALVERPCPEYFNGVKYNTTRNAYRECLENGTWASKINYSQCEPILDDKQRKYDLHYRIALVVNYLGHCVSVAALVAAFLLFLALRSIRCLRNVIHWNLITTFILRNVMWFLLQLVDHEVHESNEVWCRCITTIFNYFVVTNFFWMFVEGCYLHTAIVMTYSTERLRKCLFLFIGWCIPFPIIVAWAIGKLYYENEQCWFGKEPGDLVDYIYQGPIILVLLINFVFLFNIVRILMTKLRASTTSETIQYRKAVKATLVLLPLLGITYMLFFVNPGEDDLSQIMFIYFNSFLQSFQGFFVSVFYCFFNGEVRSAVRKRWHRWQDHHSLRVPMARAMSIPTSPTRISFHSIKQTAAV
T2 sequence (P24387 whole entry): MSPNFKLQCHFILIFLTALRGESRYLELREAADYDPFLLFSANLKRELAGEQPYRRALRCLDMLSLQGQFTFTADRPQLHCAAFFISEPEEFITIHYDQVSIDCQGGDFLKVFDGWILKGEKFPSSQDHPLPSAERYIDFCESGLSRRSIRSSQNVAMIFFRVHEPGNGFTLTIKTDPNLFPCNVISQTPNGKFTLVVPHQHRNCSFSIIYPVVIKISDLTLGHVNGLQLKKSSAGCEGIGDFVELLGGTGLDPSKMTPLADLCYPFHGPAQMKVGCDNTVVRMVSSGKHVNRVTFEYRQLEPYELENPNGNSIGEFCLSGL

[3] = target: T2, Corticotropin-releasing factor receptor 2/Corticotropin-releasing factor-binding protein; assay: activators of CRF receptor 2 with binding protein – uHTS hits, confirmation (AID 602473); type: functional; settings: read-out: EC50_Mean
[4] = NIH-3T3 fibroblast cytotoxicity, dose response, cytotoxicity control, cell-based, fluorescence, Alamar Blue, secondary assay (AID 2327); type: functional;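 note: NIH-3T3 mouse fibroblasts cultured with fluconazole at 8 µg/mL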
[5] = cytotoxicity toward NIH3T3 fibroblasts, dose response, counter-screen, cell-based, ATP luminescence, mouse fibroblasts (AID 2010); type: functional;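 note: cells exposed to compound for about 90 hours before reading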
[6] = C. albicans growth with fluconazole, confirmation, fluorescence, retest (AID 2467); type: functional, cell-based
[7] = inhibitors of intracellular T. cruzi replication, confirmation, NIH3T3 host cells, beta-gal luminescence (AID 2044); type: functional, cell-based;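 note: intracellular parasites grown in NIH/3T3 mouse fibroblasts as host cells; luminescent beta-galactosidase reporter signal from transgenic T. cruzi replicating inside host cells; inhibitors lower the luminescence signal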
[8] = target: Cytochrome P450 2C9 (Homo sapiens, UniProt P11712)
[9] = tested on: H4; assay: Luminescence Cell-Based Dose Response HTS to Identify Activators of 5'UTR Stem-Loop Driven Prion Protein mRNA Translation in H4 Neuroglioblastoma Cells. [Related pubchem assays: 1829 (Project Summary), 1814 (Primary HTS)]; type: functional; settings: Homo sapiens
[10] = target: T3, Rac GTPase-activating protein 1 (Homo sapiens, UniProt Q9H0H5); assay: MgcRacGAP GTPase-activating activity inhibitors, confirmation, biochemical, ADP Hunter fluorescence, primary and confirmatory (AID 624330); type: functional
T3 sequence (Q9H0H5 whole entry): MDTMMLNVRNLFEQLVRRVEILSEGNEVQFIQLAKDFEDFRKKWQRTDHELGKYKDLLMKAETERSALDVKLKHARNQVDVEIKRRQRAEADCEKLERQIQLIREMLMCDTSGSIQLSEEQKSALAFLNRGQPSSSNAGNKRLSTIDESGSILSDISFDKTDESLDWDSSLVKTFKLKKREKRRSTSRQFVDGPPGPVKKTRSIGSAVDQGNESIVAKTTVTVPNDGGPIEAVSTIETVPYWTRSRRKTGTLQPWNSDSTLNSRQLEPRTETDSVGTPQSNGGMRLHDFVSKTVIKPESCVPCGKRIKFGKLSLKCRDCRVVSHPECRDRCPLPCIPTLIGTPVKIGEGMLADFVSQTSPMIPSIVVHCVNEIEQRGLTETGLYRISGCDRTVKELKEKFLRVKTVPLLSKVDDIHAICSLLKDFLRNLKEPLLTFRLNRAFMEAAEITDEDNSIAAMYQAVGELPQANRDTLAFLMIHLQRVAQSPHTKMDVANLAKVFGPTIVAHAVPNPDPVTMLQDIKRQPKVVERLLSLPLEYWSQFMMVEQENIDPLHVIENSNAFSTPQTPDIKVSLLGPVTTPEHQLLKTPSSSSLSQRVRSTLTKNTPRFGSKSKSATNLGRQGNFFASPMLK

[11] = Luminescence Cell-Based Dose Retest to Confirm Inhibitors of Cancer Stem Cells. [Related pubchem assays (depositor defined):AID2717, AID2721]; type: functional; settings: Homo sapiens
[12] = tested on: Streptococcus sp. 'group A'; assay: growth inhibition of control SK(-) GAS strain, dose response, counter-screen for streptokinase expression inhibitor project, luminescence, kanamycin, BacTiterGlo, confirmation (AID 1900); type: functional, organism-based
[13] = tested on: Streptococcus; assay: Group A Streptococcus viability loss, dose response, counter-screen for streptokinase expression inhibitor project, luminescence, BacTiterGlo (AID 1915); type: functional, organism-based;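 note: potency for reduction of bacterial viability or growth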
[14] = tested on: INS1; assay: beta cell apoptosis inhibitors, cytokine rescue, dose response, luminescence, retest (AID 449756); type: functional, cell-based; settings: Rattus norvegicus;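 note: cell death triggered by IL-1 beta plus TNF-alpha plus IFN-gamma mixture; protective hits raise ATP signal compared with cytokine alone wells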
[15] = P. falciparum Dd2 growth inhibitors, dose response, SYBR Green, cherry-picked samples (AID 1159567); type: functional, cell-based

Chain of Cytochrome P450 2C9 (P11712 whole entry): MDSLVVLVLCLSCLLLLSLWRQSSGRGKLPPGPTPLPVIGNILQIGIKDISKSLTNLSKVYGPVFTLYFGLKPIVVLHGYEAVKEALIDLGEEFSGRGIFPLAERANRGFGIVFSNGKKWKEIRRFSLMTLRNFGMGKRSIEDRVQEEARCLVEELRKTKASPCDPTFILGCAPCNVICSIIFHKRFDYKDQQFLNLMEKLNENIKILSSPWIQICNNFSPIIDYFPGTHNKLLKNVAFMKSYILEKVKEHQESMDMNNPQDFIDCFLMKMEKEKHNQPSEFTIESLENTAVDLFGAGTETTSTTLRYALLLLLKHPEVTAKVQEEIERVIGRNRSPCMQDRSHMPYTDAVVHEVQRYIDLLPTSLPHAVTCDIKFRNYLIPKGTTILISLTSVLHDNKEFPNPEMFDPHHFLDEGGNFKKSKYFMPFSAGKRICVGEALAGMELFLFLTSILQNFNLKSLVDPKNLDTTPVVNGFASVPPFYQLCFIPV

CCCNC(=N)NCCC[C@H](N)C(=O)O
AC50 [1]: 31.6 µM (inconclusive)

CCOc1ccc(C(CCc2ccccc2)NC(=O)c2ccccc2OC)cc1OCC (configuration not stated)
IC50 [2]: > 47.1 µM (inactive) | EC50 [3]: > 53 µM (inactive)

O=C(NNC(=O)c1ccccc1C(=O)O)c1ccc(O)cc1
IC50 [2]: > 47.1 µM (inactive) | EC50 [3]: > 53 µM (inactive)

CS(=O)(=O)Oc1ccc(Br)c2cccnc12
IC50 [2]: > 47.1 µM (inactive) | EC50 [3]: > 53 µM (inactive)

Cc1c(C(=O)O)sc(S(=O)(=O)N2CCN(C(=O)Cc3ccc(F)cc3)CC2)c1C(=O)O
IC50 [2]: > 47.1 µM (inactive) | EC50 [3]: > 53 µM (inactive)

c1ccc(COc2ccccc2CNC23CC4CC(CC(C4)C2)C3)cc1
EC50 [4]: > 160 µM (inactive) | EC50 [5]: > 60 µM (not active) | EC50 [6]: > 38 µM (not active) | EC50 [7]: 2.36 µM (active)

CCOC(=O)c1c(NC(=O)Cn2nc([N+](=O)[O-])c(Br)c2C)sc2c1CCC(C)C2 (configuration not stated)
AC50 [1]: 2.82 µM (inconclusive) | AC50 [8]: 3.55 µM (inconclusive)

COc1ccc(C(=O)N2CCC3(CC2)CN(C(=O)Nc2ccccc2)C3)cc1
AC50 [1]: 25.1 µM (inconclusive)

COc1ccc(/C=C2\CCn3c2nc2ccccc2c3=O)cc1OC
EC50 [9]: 1.08 µM (active)

O=C(C1CCN(S(=O)(=O)c2cccc3nsnc23)CC1)N1CCCc2ccccc21
AC50 [1]: 10 µM (inconclusive) | AC50 [8]: 39.8 µM (inconclusive)

Cc1ccc(S(=O)(=O)c2nc(S(C)(=O)=O)sc2N2CCOCC2)cc1
IC50 [2]: > 47.1 µM (inactive) | EC50 [3]: > 53 µM (inactive)

O=C(CCCOc1ccc(Cl)cc1)Nc1cccc(C(=O)O)c1
IC50 [2]: > 47.1 µM (inactive) | EC50 [3]: > 53 µM (inactive)

COc1ccc(CN2CCN(Cc3ccccc3OC)CC2)cc1
IC50 [10]: 74.7 µM (active)

Cc1noc(C)c1S(=O)(=O)N1CCC(C(=O)N2CCN(c3ccc(Cl)cc3)CC2)CC1
IC50 [2]: > 47.1 µM (inactive) | EC50 [3]: > 53 µM (inactive)

c1cc2c(cc1CNc1ccc(N3CCOCC3)cc1)OCO2
IC50 [10]: 6.57 µM (active)

CCN(CC)c1ccc(N2C(=O)/C(=C/c3cccnc3)SC2=S)cc1
AC50 [1]: 6.31 µM (inconclusive)

CCCc1ccc(C(=O)NNc2ccc(F)cc2)cc1
EC50 [4]: 13 µM (inconclusive) | EC50 [6]: > 38 µM (not active) | AC50 [11]: 1.03 µM (active)

CN(C)c1ccc(/C=C2/C(=O)NC(=O)N(Cc3ccco3)C2=O)cc1
IC50 [10]: 142 µM (active)

O=C1N=C(N2CCOCC2)S/C1=C1\C(=O)N(Cc2ccccc2)c2ccccc21
EC50 [9]: 45 µM (inconclusive)

O=C(O)C[C@@H](C(=O)O)c1ccccc1[N+](=O)[O-]
AC50 [1]: 0.794 µM (inconclusive)

CC(C)NC1=NN=C(c2ccc(Cl)c(Cl)c2)CS1
EC50 [9]: 0.597 µM (active)

CC1CCCC(N2CCN(C(=O)c3ccc([N+](=O)[O-])cc3)CC2)C1 (configuration not stated)
IC50 [10]: 167 µM (active)

COc1ccc(C(=O)N2CCC[C@@]3(CCN(c4cccc(-c5ccccc5)c4)C3)C2)cc1
AC50 [1]: 12.6 µM (inconclusive)

CCN(CC)CCN(C(=O)c1ccc2ccccc2c1)c1nc2ccc(OC)cc2s1
EC50 [4]: > 160 µM (inactive) | EC50 [6]: > 38 µM (not active)

COc1ccc(C#Cc2c(-c3ccccc3)n(-c3ccccc3)c3ccc(CO)cc23)cc1
IC50 [2]: > 47.1 µM (inactive) | EC50 [3]: > 53 µM (inactive)

COc1ccc(NC(=O)CSc2nnc(C3CC3)n2N)cc1
AC50 [1]: 39.8 µM (inconclusive) | AC50 [8]: 28.2 µM (inconclusive)

CCN1C(=O)CC2CCCC1C2 (configuration not stated)
IC50 [2]: > 47.1 µM (inactive) | EC50 [3]: > 53 µM (inactive)

CCN(CC)c1ccc(/C=N/NC(=O)OC)c(O)c1
IC50 [10]: 66 µM (active)

COc1cc(OC)c2cc(C(=O)N/N=C/c3ccccc3O)[nH]c2c1
EC50 [12]: 0.781 µM (active) | EC50 [4]: 23.1 µM (active) | EC50 [13]: 7.68 µM (active) | EC50 [6]: 1.47 µM (active) | AC50 [14]: 3.06 µM (active)

COc1cc(C=C2CN(C)C(=O)C2=O)ccc1O
IC50 [10]: 19.6 µM (active)

O=C(N/N=C/c1ccc(O)c2ccccc12)c1cccnc1
IC50 [10]: 127 µM (active)

CO[C@H]1CN(C)C(=O)c2cc(NC(=O)c3nc4ccccc4s3)ccc2OC[C@@H](C)NC[C@@H]1C
AC50 [15]: 7.49 µM (active)

COc1cccc(C#Cc2ccc([C@H]3[C@@H](C#N)N(C(=O)C4CCCC4)[C@@H]3CO)cc2)c1
AC50 [15]: 5.62 µM (active)

COc1cccc(-c2ccc3c(c2)[C@H]2[C@H](CCN2C(=O)C2CCCC2)[C@@H](CO)N3)c1
AC50 [15]: 6.77 µM (active)

CCC(=O)N1CC2(C1)[C@@H](c1ccc(-c3cccc(OC)c3)cc1)[C@@H](CO)N2C(C)=O
AC50 [15]: 22.2 µM (active)

COc1ccc(S(=O)(=O)N(C)C[C@@H]2OCc3ccccc3-c3c(n(C)c4ccccc34)C(=O)N([C@H](C)CO)C[C@H]2C)cc1
AC50 [15]: 4.65 µM (active)

Cc1ccc(-c2ccc3c(c2)O[C@@H](CN(C)Cc2cccnc2)[C@@H](C)CN([C@@H](C)CO)S3(=O)=O)cc1
AC50 [15]: 5.62 µM (active)

Cc1ccc(-c2ccc([C@H]3[C@@H]4CN(S(=O)(=O)c5ccccc5)C[C@H]3N4)cc2)cc1
AC50 [15]: 3.66 µM (active)

COc1cccc(NC(=O)Nc2ccc3c(c2)C(=O)N(C)C[C@@H](OC)[C@H](C)CN[C@@H](C)CO3)c1
AC50 [15]: 22.8 µM (active)

CSc1ccc2c(c1)N(CCCN(C)C)c1ccccc1S2
AC50 [1]: 1.26 µM (inconclusive)
